The supplement of paper PMC8149375

How the values were obtained:
Details in all cases: treatment: drug alone; 5 days
786-O [1] = experiment: minimum viability across doses, drug alone, relative to DMSO (fraction); higher = less growth inhibition
Description: (§1)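 Primary HTS: 8 RCC cell lines treated with 8 doses (up to 10 uM) of each library drug alone for 5 days; viability read by CellTiter-Glo and normalised to DMSO. GI50 was fitted with XLfit (4-parameter), AUC is the area under the dose-response curve, and minimum viability is the lowest fraction of DMSO viability across doses.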

CAKI-1 [2] = experiment: as above
Description: as §1

769-P [3] = experiment: as above
Description: as §1

TK-10 [4] = experiment: as above
Description: as §1

A498 [5] = experiment: as above
Description: as §1

ACHN [6] = experiment: as above
Description: as §1

SN12C [7] = experiment: as above
Description: as §1

UO-31 [8] = experiment: as above
Description: as §1

786-O [9] = experiment: GI50, drug alone; higher = less potent
Description: as §1

CAKI-1 [10] = experiment: GI50, drug alone; higher = less potent
Description: as §1

769-P [11] = experiment: GI50, drug alone; higher = less potent
Description: as §1

TK-10 [12] = experiment: GI50, drug alone; higher = less potent
Description: as §1

A498 [13] = experiment: GI50, drug alone; higher = less potent
Description: as §1

ACHN [14] = experiment: GI50, drug alone; higher = less potent
Description: as §1

SN12C [15] = experiment: GI50, drug alone; higher = less potent
Description: as §1

UO-31 [16] = experiment: GI50, drug alone; higher = less potent
Description: as §1

786-O [17] = experiment: AUC of dose-response viability curve, drug alone (arbitrary (AUC of normalised viability)); higher = less growth inhibition
Description: as §1

CAKI-1 [18] = experiment: as above
Description: as §1

769-P [19] = experiment: as above
Description: as §1

TK-10 [20] = experiment: as above
Description: as §1

A498 [21] = experiment: as above
Description: as §1

ACHN [22] = experiment: as above
Description: as §1

SN12C [23] = experiment: as above
Description: as §1

UO-31 [24] = experiment: as above
Description: as §1

COCC[n+]1c2c(n(Cc3cnccn3)c1C)C(=O)c1ccccc1C2=O [YM155] was tested, and the “minimum viability across doses” value (786-O [1]) was 0.00377, the “minimum viability across doses” value (CAKI-1 [2]) was 0.00636 and the “minimum viability across doses” value (769-P [3]) was 0.00858. The “minimum viability across doses” value (TK-10 [4]) was 0.0341, the “minimum viability across doses” value (A498 [5]) was 0.0106 and the “minimum viability across doses” value (ACHN [6]) was 0.00196. The “minimum viability across doses” value (SN12C [7]) was 0.00269, the “minimum viability across doses” value (UO-31 [8]) was 0.00519 and the “GI50, drug alone” value (786-O [9]) was > 10000 nM. The “GI50, drug alone” value (CAKI-1 [10]) was 12.5 nM, the “GI50, drug alone” value (769-P [11]) was 14.5 nM and the “GI50, drug alone” value (TK-10 [12]) was 27.7 nM. The “GI50, drug alone” value (A498 [13]) was 12.4 nM, the “GI50, drug alone” value (ACHN [14]) was 13.3 nM and the “GI50, drug alone” value (SN12C [15]) was 11.3 nM. For the same compound, the “GI50, drug alone” value (UO-31 [16]) was 25.6 nM, the “AUC of dose-response viability curve” value (786-O [17]) was 0.165 and the “AUC of dose-response viability curve” value (CAKI-1 [18]) was 0.655. The “AUC of dose-response viability curve” value (769-P [19]) was 0.736, the “AUC of dose-response viability curve” value (TK-10 [20]) was 1.14 and the “AUC of dose-response viability curve” value (A498 [21]) was 0.68. For the same compound, the “AUC of dose-response viability curve” value (ACHN [22]) was 0.648, the “AUC of dose-response viability curve” value (SN12C [23]) was 0.567 and the “AUC of dose-response viability curve” value (UO-31 [24]) was 0.852.

In the case of FC(F)c1nc2ccccc2n1-c1nc(N2CCOCC2)nc(N2CCOCC2)n1 [ZSTK474], the “minimum viability across doses” value (786-O [1]) is reported as 0.0739, the “minimum viability across doses” value (CAKI-1 [2]) is reported as 0.109 and the “minimum viability across doses” value (769-P [3]) is reported as 0.127. The “minimum viability across doses” value (TK-10 [4]) was 0.158, the “minimum viability across doses” value (A498 [5]) was 0.0458 and the “minimum viability across doses” value (ACHN [6]) was 0.0879. The “minimum viability across doses” value (SN12C [7]) was 0.172, the “minimum viability across doses” value (UO-31 [8]) was 0.0171 and the “GI50, drug alone” value (786-O [9]) was 299 nM. For the same compound, the “GI50, drug alone” value (CAKI-1 [10]) was 431 nM, the “GI50, drug alone” value (769-P [11]) was 1090 nM and the “GI50, drug alone” value (TK-10 [12]) was 547 nM. The “GI50, drug alone” value (A498 [13]) was 2170 nM, the “GI50, drug alone” value (ACHN [14]) was 699 nM and the “GI50, drug alone” value (SN12C [15]) was 1230 nM. The “GI50, drug alone” value (UO-31 [16]) was 1450 nM, the “AUC of dose-response viability curve” value (786-O [17]) was 1.95 and the “AUC of dose-response viability curve” value (CAKI-1 [18]) was 2.12. The “AUC of dose-response viability curve” value (769-P [19]) was 2.38, the “AUC of dose-response viability curve” value (TK-10 [20]) was 2.17 and the “AUC of dose-response viability curve” value (A498 [21]) was 2.84. The “AUC of dose-response viability curve” value (ACHN [22]) was 2.36, the “AUC of dose-response viability curve” value (SN12C [23]) was 2.48 and the “AUC of dose-response viability curve” value (UO-31 [24]) was 2.73.

With O=C(O)c1ccc2c(c1)nc(Nc1cccc(Cl)c1)c1ccncc12 [cx-4945 (Silmitasertib)] the “minimum viability across doses” value (786-O [1]) was 0.259, the “minimum viability across doses” value (CAKI-1 [2]) was 0.0814 and the “minimum viability across doses” value (769-P [3]) was 0.679. For the same compound, the “minimum viability across doses” value (TK-10 [4]) was 0.634, the “minimum viability across doses” value (A498 [5]) was 0.956 and the “minimum viability across doses” value (ACHN [6]) was 0.238. For the same compound, the “minimum viability across doses” value (SN12C [7]) was 0.681, the “minimum viability across doses” value (UO-31 [8]) was 0.541 and the “GI50, drug alone” value (786-O [9]) was 5230 nM. For the same compound, the “GI50, drug alone” value (CAKI-1 [10]) was 3970 nM, the “GI50, drug alone” value (769-P [11]) was > 10000 nM and the “GI50, drug alone” value (TK-10 [12]) was > 10000 nM. For the same compound, the “GI50, drug alone” value (A498 [13]) was > 10000 nM, the “GI50, drug alone” value (ACHN [14]) was 8870 nM and the “GI50, drug alone” value (SN12C [15]) was > 10000 nM. For the same compound, the “GI50, drug alone” value (UO-31 [16]) was > 10000 nM, the “AUC of dose-response viability curve” value (786-O [17]) was 2.33 and the “AUC of dose-response viability curve” value (CAKI-1 [18]) was 3.07. The “AUC of dose-response viability curve” value (769-P [19]) was 3.12, the “AUC of dose-response viability curve” value (TK-10 [20]) was 3.01 and the “AUC of dose-response viability curve” value (A498 [21]) was 4.21. For the same compound, the “AUC of dose-response viability curve” value (ACHN [22]) was 3.2, the “AUC of dose-response viability curve” value (SN12C [23]) was 3.06 and the “AUC of dose-response viability curve” value (UO-31 [24]) was 4.43.
